Measurements: PubChem BioAssay (NCI)
“And” between values parts separate entries of the source, which are not always exact repeats. Identical values can stand only once.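 Compound exposure: 48 hours, 5 concentrations, 96-well plates. GI50 marks 50% less growth. At the TGI there is no net growth.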

Key:
Assay in all cases: NCI-60 cell line screen, 48 h
[1] = tested on: HCT-116 colon
[2] = tested on: RPMI-8226 leukemia
[3] = tested on: PC-3 prostate
[4] = tested on: U251 CNS
[5] = tested on: KM12 colon
[6] = tested on: IGROV1 ovarian
[7] = tested on: NCI-H226 lung
[8] = tested on: MCF7 breast
[9] = tested on: SR leukemia
[10] = tested on: HOP-92 NSCLC
[11] = tested on: NCI/ADR-RES ovarian
[12] = tested on: DU-145 prostate
[13] = tested on: COLO 205 colon
[14] = tested on: OVCAR-3 ovarian
[15] = tested on: LOX IMVI melanoma
[16] = tested on: HL-60(TB) leukemia
[17] = tested on: UACC-257 melanoma
[18] = tested on: T-47D breast
[19] = tested on: EKVX NSCLC
[20] = tested on: K-562 leukemia
[21] = tested on: A549 NSCLC
[22] = tested on: SK-MEL-2 melanoma
[23] = tested on: MDA-MB-435
[24] = tested on: SK-OV-3 ovarian
[25] = tested on: OVCAR-4 ovarian
[26] = tested on: SNB-19 CNS
[27] = tested on: OVCAR-5 ovarian
[28] = tested on: HS 578T breast
[29] = tested on: NCI-H23 lung
[30] = tested on: UO-31 renal
[31] = tested on: MOLT-4 leukemia
[32] = tested on: SW-620 colon
[33] = tested on: MDA-N
[34] = tested on: HCT-15 colon
[35] = tested on: HOP-62 NSCLC
[36] = tested on: SK-MEL-5 melanoma
[37] = tested on: M14 melanoma
[38] = tested on: TK-10 renal
[39] = tested on: OVCAR-8 ovarian
[40] = tested on: HT29 colon
[41] = tested on: NCI-H522 lung
[42] = tested on: SK-MEL-28 melanoma
[43] = tested on: NCI-H460 lung
[44] = tested on: A498 renal
[45] = tested on: SNB-75 CNS
[46] = tested on: CCRF-CEM leukemia
[47] = tested on: UACC-62 melanoma
[48] = tested on: CAKI-1 renal
[49] = tested on: SF-295 CNS
[50] = tested on: MDA-MB-231 breast
[51] = tested on: SN12C renal
[52] = tested on: MALME-3M melanoma
[53] = tested on: ACHN renal
[54] = tested on: RXF 393 renal
[55] = tested on: SF-539 CNS
[56] = tested on: HCC-2998 colon
[57] = tested on: SF-268 CNS
[58] = tested on: 786-0 renal

CC(=O)OCC1OC(Sc2nc(-c3ccc(Cl)cc3)c(C#N)c(=O)n2C2OC(COC(C)=O)C(OC(C)=O)C(OC(C)=O)C2OC(C)=O)C(OC(C)=O)C(OC(C)=O)C1OC(C)=O (stereo not drawn)
TGI [1]: > 100 µM
TGI [2]: > 100 µM
TGI [3]: > 100 µM and 24.4 µM
TGI [4]: > 100 µM
TGI [5]: > 100 µM and 31 µM
TGI [6]: > 100 µM and 33.5 µM
TGI [7]: > 100 µM and 12.1 µM
TGI [8]: > 100 µM and 15.4 µM
TGI [9]: 99.8 µM
GI50 [10]: 2.13 µM
TGI [10]: 9.15 µM
GI50 [11]: > 100 µM and 10.2 µM
TGI [11]: > 100 µM
TGI [12]: > 100 µM and 25.3 µM
TGI [13]: > 100 µM and 19.3 µM
TGI [14]: > 100 µM and 24.8 µM
GI50 [15]: 26.9 µM and 8.49 µM
TGI [15]: > 100 µM
TGI [16]: 8.82 µM
TGI [17]: > 100 µM and 10.8 µM
GI50 [18]: 89.8 µM and 17.7 µM
TGI [18]: > 100 µM
TGI [19]: > 100 µM
GI50 [20]: 36.6 µM
TGI [20]: > 100 µM
TGI [21]: > 100 µM
GI50 [22]: > 100 µM and 17.4 µM
TGI [22]: > 100 µM
TGI [23]: > 100 µM and 19.7 µM
TGI [24]: > 100 µM and 11.2 µM
TGI [25]: 12.1 µM
GI50 [26]: > 100 µM and 10.7 µM
TGI [26]: > 100 µM and 23.1 µM
TGI [27]: > 100 µM and 21.9 µM
TGI [28]: > 100 µM and 34.3 µM
TGI [29]: > 100 µM and 20 µM
GI50 [30]: 27.7 µM and 55.9 µM
TGI [30]: > 100 µM
TGI [31]: > 100 µM
TGI [32]: > 100 µM
TGI [33]: > 100 µM and 13.2 µM
TGI [34]: > 100 µM and 13.6 µM
TGI [35]: > 100 µM and 18.5 µM
TGI [36]: > 100 µM and 12.8 µM
TGI [37]: > 100 µM
GI50 [38]: > 100 µM and 20.2 µM
TGI [38]: > 100 µM and 47.8 µM
GI50 [39]: > 100 µM and 17.2 µM
TGI [39]: > 100 µM

S=C(/C=C1\SC(=Nc2ccccc2)C(=Nc2ccccc2)N1c1ccccc1)Nc1ccccc1
TGI [1]: > 100 µM
TGI [40]: > 100 µM
TGI [2]: > 100 µM
TGI [3]: > 100 µM
TGI [41]: > 100 µM
TGI [4]: > 100 µM
TGI [42]: > 100 µM
TGI [5]: > 100 µM
TGI [6]: > 100 µM
TGI [9]: > 100 µM
TGI [10]: > 100 µM
TGI [11]: > 100 µM
TGI [12]: > 100 µM
TGI [13]: > 100 µM
TGI [14]: > 100 µM
TGI [16]: > 100 µM
TGI [18]: > 100 µM
TGI [22]: > 100 µM
TGI [23]: > 100 µM
TGI [24]: > 100 µM
TGI [43]: > 100 µM
TGI [28]: > 100 µM
TGI [44]: > 100 µM
TGI [45]: > 100 µM
TGI [46]: > 100 µM
TGI [29]: > 100 µM
TGI [47]: > 100 µM
TGI [48]: > 100 µM
TGI [31]: > 100 µM
TGI [49]: > 100 µM
TGI [50]: > 100 µM
TGI [51]: > 100 µM
TGI [33]: > 100 µM
TGI [34]: > 100 µM
TGI [35]: > 100 µM
TGI [36]: > 100 µM
TGI [37]: > 100 µM
TGI [52]: > 100 µM
TGI [39]: > 100 µM

c1ccc(-c2cc(-c3cccs3)c(-c3cccs3)s2)cc1
TGI [1]: > 100 µM
TGI [40]: > 100 µM
TGI [2]: 79 µM
TGI [41]: 64.8 µM
TGI [53]: > 100 µM
TGI [4]: > 100 µM
TGI [54]: 47.3 µM
TGI [55]: > 100 µM
TGI [5]: 32.9 µM
TGI [6]: > 100 µM
TGI [56]: 67.8 µM
TGI [7]: > 100 µM
TGI [8]: 41 µM
TGI [9]: 52.3 µM
TGI [10]: > 100 µM
TGI [11]: > 100 µM
TGI [12]: > 100 µM
TGI [13]: > 100 µM
TGI [14]: > 100 µM
TGI [16]: 88.5 µM
TGI [17]: > 100 µM
TGI [18]: 58.4 µM
TGI [19]: > 100 µM
TGI [23]: 75.5 µM
TGI [24]: > 100 µM
TGI [43]: > 100 µM
TGI [25]: 62.6 µM
TGI [27]: > 100 µM
TGI [28]: > 100 µM
TGI [44]: > 100 µM
TGI [45]: > 100 µM
TGI [57]: > 100 µM
TGI [46]: 57.9 µM
TGI [29]: 60.2 µM
TGI [47]: > 100 µM
TGI [48]: > 100 µM
TGI [30]: 72.3 µM
TGI [31]: 63.1 µM
TGI [49]: > 100 µM
TGI [50]: > 100 µM
TGI [32]: > 100 µM
TGI [51]: > 100 µM
TGI [33]: > 100 µM
TGI [34]: 70.1 µM
TGI [58]: > 100 µM
TGI [35]: > 100 µM
TGI [36]: > 100 µM
TGI [37]: 54.5 µM
TGI [38]: > 100 µM
TGI [39]: > 100 µM
